The record followed here is patent publication US20220089578A1, “COMPOUNDS AS GLP-1R AGONISTS” (Terns Pharmaceuticals, Inc., priority 2020, published 2022).

By EC50 is commonly meant the midpoint of the concentration-response curve. Read a high EC50 as lower potency in that assay.

Chain of human GLP-1R (P43220 24-463): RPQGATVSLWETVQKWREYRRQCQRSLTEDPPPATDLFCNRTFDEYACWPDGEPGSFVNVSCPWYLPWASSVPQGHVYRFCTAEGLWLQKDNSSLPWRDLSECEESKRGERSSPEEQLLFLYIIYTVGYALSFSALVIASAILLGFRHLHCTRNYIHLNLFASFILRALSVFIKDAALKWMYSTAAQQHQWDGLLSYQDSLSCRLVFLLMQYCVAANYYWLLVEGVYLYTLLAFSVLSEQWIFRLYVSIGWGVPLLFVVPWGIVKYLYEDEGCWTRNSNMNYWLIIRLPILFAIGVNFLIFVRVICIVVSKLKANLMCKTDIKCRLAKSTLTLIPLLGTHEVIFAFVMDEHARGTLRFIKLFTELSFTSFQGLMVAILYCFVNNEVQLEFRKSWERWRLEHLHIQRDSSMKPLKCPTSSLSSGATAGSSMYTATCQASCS

One experiment deals with human GLP-1R (Homo sapiens, UniProt P43220). The experiment in a line: GLP-1R Cell Assay 1: cAMP Hunter CHO-K1 GLP1R Gs cell line, HitHunter cAMP assay. In kind it is cell-based. Conditions: Table 2; cAMP Hunter CHO-K1 GLP1R Gs cells; percent activity normalized to Exendin-4. An outline of the steps:
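CHO-K1 cells overexpressing wild-type human GLP-1R treated with 3-fold serially diluted compounds for 30-60 min at 37 °C. cAMP measured by EFC competitive luminescent immunoassay; activity normalised to Exendin-4, duplicate runs, EC50 by nonlinear regression.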
In the case of `O=C(O)c1ccc2nc3n(c2c1)CCOC[C@H]3N1CCC(c2cccc(OCc3ccccc3)n2)CC1` [Compound 93, (S)-5-(4-(6-(benzyloxy)pyridin-2-yl)piperidin-1-yl)-1,2,4,5-tetrahydrobenzo[4,5]imidazo [1,2-d][1,4]oxazepine-9-carboxylic acid], the EC50 was over 500 nM.
Compound `N#Cc1ccc(COc2nn(C3CCN(Cc4nc5ccc(C(=O)O)cc5n4C[C@@H]4CCO4)CC3)cc2F)c(F)c1` [Compound 108, (S)-2-((4-(3-((4-cyano-2-fluorobenzyl)oxy)-4-fluoro-1H-pyrazol-1-yl)piperidin-1-yl)methyl)-1-(oxetan-2-ylmethyl)-1H-benzo[d]imidazole-6-carboxylic acid] came in with an EC50 of 4.15 nM.
Still for that read-out and setting: as for `O=C(O)c1ccc2nc(CN3CCN(c4cccc(OCc5cc6ccccc6cn5)n4)CC3)n(C[C@@H]3CCO3)c2c1` [Compound 85, (S)-2-((4-(6-(isoquinolin-3-ylmethoxy)pyridin-2-yl)piperazin-1-yl)methyl)-1-(oxetan-2-ylmethyl)-1H-benzo[d]imidazole-6-carboxylic acid], the figure is 6.11 nM; as for `Cn1cnc2ccc(COc3cccc(N4CCN(Cc5nc6ccc(C(=O)O)cc6n5C[C@@H]5CCO5)CC4)n3)cc21` [Compound 72, (S)-2-((4-(6-((1-methyl-1H-benzo[d]imidazol-6-yl)methoxy)pyridin-2-yl)piperazin-1-yl)methyl)-1-(oxetan-2-ylmethyl)-1H-benzo[d]imidazole-6-carboxylic acid], 4.6 nM; as for `N#Cc1ccc(COc2cccc(C3CCN([C@@H]4COCCn5c4nc4ccc(C(=O)O)cc45)CC3)n2)c(F)c1` (single isomer, unassigned) [Compound 7-P2], over 500 nM.
As for `O=C(O)c1ccc2nc(CN3CCN(c4cccc(OCC5CC6(CCOCC6)C5)n4)CC3)n(C[C@@H]3CCO3)c2c1` [Compound 48, (S)-2-((4-(6-((7-oxaspiro[3.5]nonan-2-yl)methoxy)pyridin-2-yl)piperazin-1-yl)methyl)-1-(oxetan-2-ylmethyl)-1H-benzo[d]imidazole-6-carboxylic acid], the EC50 was over 500 nM.
Consider `N#Cc1ccc(COc2cccc(N3CCN(Cc4nc5ccc(C(=O)O)cc5n4C[C@@H]4CCO4)CC3)n2)nc1` [Compound 62, (S)-2-((4-(6-((5-cyanopyridin-2-yl)methoxy)pyridin-2-yl)piperazin-1-yl)methyl)-1-(oxetan-2-ylmethyl)-1H-benzo[d]imidazole-6-carboxylic acid], for which the EC50 came to 0.86 nM.
`CCc1cn(C2CCN(Cc3nc4ccc(C(=O)O)cc4n3C[C@@H]3CCO3)CC2)nc1OCc1ccc(C#N)cc1F` [Compound 124, (S)-2-((4-(3-((4-cyano-2-fluorobenzyl)oxy)-4-ethyl-1H-pyrazol-1-yl)piperidin-1-yl)methyl)-1-(oxetan-2-ylmethyl)-1H-benzo[d]imidazole-6-carboxylic acid] showed an EC50 of 22.9 nM.
As for `O=C(O)c1ccc2nc(CN3CCN(c4nc(OCc5ccccc5)ns4)CC3)n(C[C@@H]3CCO3)c2c1` [Compound 32, (S)-2-((4-(3-(benzyloxy)-1,2,4-thiadiazol-5-yl)piperazin-1-yl)methyl)-1-(oxetan-2-ylmethyl)-1H-benzo[d]imidazole-6-carboxylic acid], the EC50 was over 500 nM.
Take `O=C(O)c1ccc2nc(CN3CCN(c4ccc5cnn(Cc6ccccc6)c5n4)CC3)n(C[C@@H]3CCO3)c2c1` [Compound 27, (S)-2-((4-(1-benzyl-1H-pyrazolo[3,4-b]pyridin-6-yl)piperazin-1-yl)methyl)-1-(oxetan-2-ylmethyl)-1H-benzo[d]imidazole-6-carboxylic acid]: the midpoint of the response, the EC50, lay at 232 nM.
Regarding `O=C(O)c1ccc2nc(CN3CC(=O)N(c4cccc(OCc5ccccc5)n4)CC3=O)n(C[C@@H]3CCO3)c2c1` [Compound 17, (S)-2-((4-(6-(benzyloxy)pyridin-2-yl)-2,5-dioxopiperazin-1-yl)methyl)-1-(oxetan-2-ylmethyl)-1H-benzo[d]imidazole-6-carboxylic acid], the EC50 was found to be 23 nM.
For the compound `N#Cc1ccc2c(c1)CN(c1cccc(N3CCN(Cc4nc5ccc(C(=O)O)cc5n4C[C@@H]4CCO4)CC3)n1)CCC2` [Compound 66, (S)-2-((4-(6-(8-cyano-1,3,4,5-tetrahydro-2H-benzo[c]azepin-2-yl)pyridin-2-yl)piperazin-1-yl)methyl)-1-(oxetan-2-ylmethyl)-1H-benzo[d]imidazole-6-carboxylic acid], the EC50 stood at 135 nM.
Still for that read-out and setting: in the case of `Cc1cn(C2CCN(Cc3nc4ccc(C(=O)O)cc4n3C[C@@H]3CCO3)CC2)nc1OCc1ccccc1` [Compound 24, (S)-2-((4-(3-(benzyloxy)-4-methyl-1H-pyrazol-1-yl)piperidin-1-yl)methyl)-1-(oxetan-2-ylmethyl)-1H-benzo[d]imidazole-6-carboxylic acid] it was 350 nM.
The same measure, in the same setting: as for `N#Cc1ccc2c(c1)CN(c1cccc(N3CCN(Cc4nc5ccc(C(=O)O)cc5n4C[C@@H]4CCO4)CC3)n1)CC2` [Compound 77, (S)-2-((4-(6-(7-cyano-3,4-dihydroisoquinolin-2(1H)-yl)pyridin-2-yl)piperazin-1-yl)methyl)-1-(oxetan-2-ylmethyl)-1H-benzo[d]imidazole-6-carboxylic acid], the figure is 117 nM; as for `O=C(O)c1ccc2nc(CN3CCC4(c5cccc(OCc6ccccc6)n5)CC4C3)n(CC3CCO3)c2c1` (centres unmarked) [Compound 10], 13.9 nM; as for `O=C(O)c1ccc2nc(CN3CCN(c4cccc(OCC5COC5)n4)CC3)n(C[C@@H]3CCO3)c2c1` [Compound 47, (S)-1-(oxetan-2-ylmethyl)-2-((4-(6-(oxetan-3-ylmethoxy)pyridin-2-yl)piperazin-1-yl)methyl)-1H-benzo[d]imidazole-6-carboxylic acid], over 500 nM.

Still in this experiment, the particulars now being: Table 3; cAMP Hunter CHO-K1 GLP1R Gs cells; percent activity normalized to Exendin-4.
With `O=C(O)c1ccc2nc(CN3CCN(c4cccc5c4CCN(c4ccccc4)C5)CC3)n(C[C@@H]3CCO3)c2c1` [Compound 155, (S)-1-(oxetan-2-ylmethyl)-2-((4-(2-phenyl-1,2,3,4-tetrahydroisoquinolin-5-yl)piperazin-1-yl)methyl)-1H-benzo[d]imidazole-6-carboxylic acid], the EC50 was over 500 nM.
Still for that read-out and setting: in the case of `O=C(O)c1ccc2nc(CN3CCN(c4cc5ccccc5c(OCc5ccccc5)n4)CC3)n(C[C@@H]3CCO3)c2c1` [Compound 156, (S)-2-((4-(1-(benzyloxy)isoquinolin-3-yl)piperazin-1-yl)methyl)-1-(oxetan-2-ylmethyl)-1H-benzo[d]imidazole-6-carboxylic acid] it was 87.1 nM.
The compound `CCn1cncc1Cn1c(CN2CCC(c3cccc(OCc4nc5c(F)cc(C#N)cc5s4)n3)CC2)nc2ccc(C(=O)O)cc21` [Compound 164, 2-((4-(6-((6-cyano-4-fluorobenzo[d]thiazol-2-yl)methoxy)pyridin-2-yl)piperidin-1-yl)methyl)-1-((1-ethyl-1H-imidazol-5-yl)methyl)-1H-benzo[d]imidazole-6-carboxylic acid] had an EC50 of 0.0254 nM.
Compound `N#Cc1ccc(COc2ncccc2[C@@]23CCN(Cc4nc5ccc(C(=O)O)cc5n4CC4CCO4)C[C@@H]2C3)c(F)c1` (single isomer, unassigned) [Compound 167, 2-((6-(2-((4-cyano-2-fluorobenzyl)oxy)pyridin-3-yl)-3-azabicyclo[4.1.0]heptan-3-yl)methyl)-1-(oxetan-2-ylmethyl)-1H-benzo[d]imidazole-6-carboxylic acid] gave an EC50 of 266 nM.
